Holding throughout (assay): radiometric kinase profiling (33 PanQinase)
What all share (type): biochemical

One assay has as its target T1, EPHB4 (Homo sapiens, UniProt P54760).
T1 construct: purchased ProQinase (33PanQinase Activity Assay)
T1 sequence (P54760 16-987): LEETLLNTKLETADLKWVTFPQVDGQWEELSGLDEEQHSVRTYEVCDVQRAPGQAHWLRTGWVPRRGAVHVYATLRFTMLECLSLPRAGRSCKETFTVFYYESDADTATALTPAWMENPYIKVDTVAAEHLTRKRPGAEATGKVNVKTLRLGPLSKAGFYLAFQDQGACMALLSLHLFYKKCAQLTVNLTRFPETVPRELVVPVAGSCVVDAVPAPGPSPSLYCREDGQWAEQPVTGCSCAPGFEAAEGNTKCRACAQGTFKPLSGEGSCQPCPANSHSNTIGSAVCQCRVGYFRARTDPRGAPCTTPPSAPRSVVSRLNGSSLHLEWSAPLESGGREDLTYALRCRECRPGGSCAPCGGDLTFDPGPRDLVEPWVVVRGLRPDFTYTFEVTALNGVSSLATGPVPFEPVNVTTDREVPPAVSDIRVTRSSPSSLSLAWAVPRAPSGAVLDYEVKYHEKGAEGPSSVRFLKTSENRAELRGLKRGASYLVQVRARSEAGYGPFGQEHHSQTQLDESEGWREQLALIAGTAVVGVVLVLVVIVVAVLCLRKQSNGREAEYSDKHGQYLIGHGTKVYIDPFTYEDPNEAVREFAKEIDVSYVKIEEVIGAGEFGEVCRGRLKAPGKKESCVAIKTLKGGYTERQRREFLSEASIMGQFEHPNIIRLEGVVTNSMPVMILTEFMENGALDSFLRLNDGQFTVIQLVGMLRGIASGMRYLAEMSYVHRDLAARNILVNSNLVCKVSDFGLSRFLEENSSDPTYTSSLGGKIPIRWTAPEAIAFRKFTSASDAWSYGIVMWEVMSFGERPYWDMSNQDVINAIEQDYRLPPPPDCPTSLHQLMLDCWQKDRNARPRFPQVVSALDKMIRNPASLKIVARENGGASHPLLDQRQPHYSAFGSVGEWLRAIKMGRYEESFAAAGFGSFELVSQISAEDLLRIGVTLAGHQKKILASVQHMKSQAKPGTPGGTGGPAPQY
As to conditions: read-out: Inhibitory effect (%) EPHB4. The gist of the method:
(§1)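 Enzyme/substrate mixes were incubated with [γ-33P]-ATP and compound (added as a 0.1 μM solution in 10% DMSO) at 30 °C for 60 min, then stopped with H3PO4 and washed with NaCl. 33P incorporation was scintillation-counted, and residual activity (%) was normalized to untreated control and background.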

The target of a further assay is T2, IRAK4 (Homo sapiens, UniProt Q9NWZ3).
T2 construct: purchased ProQinase (33PanQinase Activity Assay)
T2 sequence (Q9NWZ3 1-460): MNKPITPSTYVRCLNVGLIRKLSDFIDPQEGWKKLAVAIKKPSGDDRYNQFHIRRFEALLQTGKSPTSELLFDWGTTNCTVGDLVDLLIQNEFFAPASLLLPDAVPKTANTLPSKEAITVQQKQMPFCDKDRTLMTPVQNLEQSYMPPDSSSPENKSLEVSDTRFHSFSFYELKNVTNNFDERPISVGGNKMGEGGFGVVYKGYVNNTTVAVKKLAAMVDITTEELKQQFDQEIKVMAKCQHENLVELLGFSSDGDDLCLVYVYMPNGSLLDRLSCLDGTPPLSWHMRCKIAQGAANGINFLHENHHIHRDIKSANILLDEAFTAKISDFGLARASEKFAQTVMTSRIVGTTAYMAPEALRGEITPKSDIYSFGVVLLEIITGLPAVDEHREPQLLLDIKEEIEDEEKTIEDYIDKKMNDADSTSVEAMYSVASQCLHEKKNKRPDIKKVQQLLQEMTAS
The conditions noted are these: read-out: Inhibitory effect (%) IRAK4. The essentials: as §1

The next assay concerns the target T3, PIM2 (Homo sapiens, UniProt Q9P1W9).
T3 construct: purchased ProQinase (33PanQinase Activity Assay)
As to conditions: read-out: Inhibitory effect (%) PIM2. The gist of the method:
as §1

The target in another assay is T4, PRKD2 (Homo sapiens, UniProt Q9BZL6).
T4 construct: purchased ProQinase (33PanQinase Activity Assay)
T4 sequence (Q9BZL6 1-878): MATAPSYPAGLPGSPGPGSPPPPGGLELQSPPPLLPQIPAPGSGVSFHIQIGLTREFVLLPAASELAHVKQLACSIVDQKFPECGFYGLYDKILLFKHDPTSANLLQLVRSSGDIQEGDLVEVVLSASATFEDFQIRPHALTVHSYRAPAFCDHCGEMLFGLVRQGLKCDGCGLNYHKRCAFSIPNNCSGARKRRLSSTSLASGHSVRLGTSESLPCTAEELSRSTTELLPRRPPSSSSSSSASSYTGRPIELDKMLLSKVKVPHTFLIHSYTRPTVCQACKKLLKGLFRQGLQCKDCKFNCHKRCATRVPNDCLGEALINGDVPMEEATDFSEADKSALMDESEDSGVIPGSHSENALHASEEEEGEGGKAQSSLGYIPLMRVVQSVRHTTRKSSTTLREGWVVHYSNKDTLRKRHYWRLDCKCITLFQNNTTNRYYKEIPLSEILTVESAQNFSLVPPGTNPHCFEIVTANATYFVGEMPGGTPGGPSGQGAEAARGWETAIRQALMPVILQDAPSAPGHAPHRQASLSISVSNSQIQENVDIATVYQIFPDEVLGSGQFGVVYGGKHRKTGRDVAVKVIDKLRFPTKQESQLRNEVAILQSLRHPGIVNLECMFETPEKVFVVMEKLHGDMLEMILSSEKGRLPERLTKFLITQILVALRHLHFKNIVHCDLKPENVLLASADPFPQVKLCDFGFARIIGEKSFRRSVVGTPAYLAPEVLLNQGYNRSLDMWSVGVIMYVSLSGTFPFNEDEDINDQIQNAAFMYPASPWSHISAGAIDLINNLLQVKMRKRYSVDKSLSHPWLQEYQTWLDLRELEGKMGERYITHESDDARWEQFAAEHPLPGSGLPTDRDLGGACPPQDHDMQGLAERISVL
As to conditions: read-out: Inhibitory effect (%) PRKD2. The gist of the method: as §1

For 3 compounds, inhibition results are on record in publication PMC8231556, “Inhibiting Endothelial Cell Function in Normal and Tumor Angiogenesis Using BMP Type I Receptor Macrocyclic Kinase Inhibitors” (Cancers, 2021).

T3 sequence (Q9P1W9 whole entry): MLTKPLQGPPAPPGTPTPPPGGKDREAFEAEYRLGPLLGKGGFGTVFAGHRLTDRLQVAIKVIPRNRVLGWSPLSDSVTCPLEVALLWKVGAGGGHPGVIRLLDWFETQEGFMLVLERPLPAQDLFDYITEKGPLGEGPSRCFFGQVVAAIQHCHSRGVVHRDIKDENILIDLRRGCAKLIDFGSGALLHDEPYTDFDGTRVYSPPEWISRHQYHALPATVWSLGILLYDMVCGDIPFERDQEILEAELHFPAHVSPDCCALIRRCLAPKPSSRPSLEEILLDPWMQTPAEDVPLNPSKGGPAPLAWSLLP

For `c1ccc2c(-c3cnn4cc(-c5ccc(N6CCNCC6)cc5)cnc34)ccnc2c1` [LDN-193189, reference compound], the inhibition at 0.1 µM was 4.39% on EPHB4, -6.28% on IRAK4, 6.22% at PIM2 and -23.1% at PRKD2.
Consider `CN1CCc2cccc(c2)Nc2nccc(n2)N2CCCc3cc(ccc32)C1` [OD16], for which the inhibition at 0.1 µM on EPHB4 is -36.6%; at IRAK4, 4.7%; on PIM2 it was -5.63%; on PRKD2, 32.2%.
Regarding `CN1CCC(=O)NCCNc2ccn3ncc(c3n2)-c2cccc(c2)C1` [OD29], the inhibition at 0.1 µM on EPHB4 amounted to 3.64%; on IRAK4, 26.4%; at PIM2 it was 1.97%; on PRKD2, 5.45%.
